Results published in publication PMC8001472, “Novel Selective IDO1 Inhibitors with Isoxazolo[5,4-d]pyrimidin-4(5H)-one Scaffold” (Pharmaceuticals, 2021).

Legend:
IDO1 = IDO1 (Homo sapiens, UniProt P14902); experiment: hIDO1 inhibitory potency evaluation (fluorescence assay, NFK-derived fluorophore); assay type: biochemical; parameters: gene encoding human IDO1 residues 6-403 His-tagged at the N-terminus; His tag (N); made in house; host or cells: Escherichia coli NiCo21; details: for IC50: recombinant hIDO1, mean ± SD of at least two independent determinations, read-out: IDO1 IC50; for inhibition at 100 µM: 100 µM compound, n.a. = not active, read-out: IDO1 % of Inhibition @ 100 µM
Chain of IDO1 (P14902 6-403): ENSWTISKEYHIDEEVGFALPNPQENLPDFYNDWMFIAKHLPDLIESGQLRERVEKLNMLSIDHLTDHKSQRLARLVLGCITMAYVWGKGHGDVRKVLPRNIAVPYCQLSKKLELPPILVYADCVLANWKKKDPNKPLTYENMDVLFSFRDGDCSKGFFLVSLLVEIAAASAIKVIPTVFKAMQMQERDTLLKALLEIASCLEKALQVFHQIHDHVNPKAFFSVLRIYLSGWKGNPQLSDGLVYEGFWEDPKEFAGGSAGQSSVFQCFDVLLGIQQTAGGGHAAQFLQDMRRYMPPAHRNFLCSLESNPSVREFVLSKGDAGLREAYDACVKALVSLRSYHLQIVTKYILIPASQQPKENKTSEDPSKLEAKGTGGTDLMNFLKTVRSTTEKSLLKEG

hIDO2 = biological target: T1, hIDO2 (Homo sapiens, UniProt Q6ZQW0); experiment: hIDO2 inhibitory potency evaluation (fluorescence assay); assay type: biochemical; details: for inhibition at 100 µM: 100 µM compound, n.a. = not active, read-out: IDO2 % of Inhibition @ 100 µM
T1 construct: purchased Vinci-Biochem
T1 sequence (Q6ZQW0 1-407): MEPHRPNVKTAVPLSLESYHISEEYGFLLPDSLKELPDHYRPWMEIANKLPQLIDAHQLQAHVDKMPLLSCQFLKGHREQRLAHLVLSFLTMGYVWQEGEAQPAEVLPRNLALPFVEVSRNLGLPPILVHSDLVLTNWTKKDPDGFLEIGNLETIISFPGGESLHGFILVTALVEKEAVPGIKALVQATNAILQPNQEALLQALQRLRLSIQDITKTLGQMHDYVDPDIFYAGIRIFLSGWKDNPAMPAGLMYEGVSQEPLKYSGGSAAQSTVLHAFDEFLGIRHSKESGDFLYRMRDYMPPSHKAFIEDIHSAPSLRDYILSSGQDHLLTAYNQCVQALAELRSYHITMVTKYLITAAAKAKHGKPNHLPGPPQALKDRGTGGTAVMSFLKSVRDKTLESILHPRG
Method: (§1) Additionally, to determine IDO1 selectivity, all final compounds were assayed for their inhibitory potencies towards hIDO2 and hTDO. For this purpose, two new protocols were developed based on the published fluorescence assay for hIDO1 [25]. Sodium ascorbate, methylene blue, and bovine catalase were used in the same concentrations as for hIDO1. 50 mM phosphate buffers with pH values of 7.5 and 7.0 were used for hIDO2 and hTDO, respectively, as has been already mentioned before. First, the activities of hIDO2 and hTDO were determined at four different concentrations. […] Additionally, the effect of DMSO concentration on enzyme activity was investigated. […] The optimal hIDO2 and hTDO assay concentrations of the substrate L-Trp were determined to be 4 mM and 500 μM, respectively.
Activity of the compounds on hIDO2 was determined according to the previously reported fluorescence protocol for hIDO1 [25] and reported absorbance protocols for hIDO2 [30, 36] with several modifications. Recombinant hIDO2 was purchased from Vinci-Biochem (Vinci-Biochem, Srl, Vinci, Italy), bovine catalase was purchased from Sigma-Aldrich (Sigma-Aldrich, St. Louis, MO, USA). Prior to the measurement of activity for compounds, the enzyme activity was determined and optimal assay enzyme concentration was selected. The amounts of reagents needed to perform the assay were optimized. Briefly, the reagents needed were dissolved in 50 mM potassium phosphate buffer (pH 7.5, 0.01%, v/v Tween 20), the reaction was performed in black 384-well microplates. After the addition of 1 μL of 100 mM sodium ascorbate neutralized with an equimolar amount of 1M NaOH, 1 μL of 100 μM methylene blue, 1 μL of 1 mg/mL bovine catalase, 0.5 μL of DMSO (negative control) or solution of a compound in DMSO, 5 μL of […] hIDO2 and 1.5 μL of 26.7 mM L-Trp were added and the microplate was incubated for 60 min at 37 °C. The reaction was quenched with the addition of 10 μL of 400 mM piperidine solution in MilliQ water and the formation of the examined fluorophore began following incubation at 65 °C for 20 min. The production of NFK-derived fluorophore (λEX = 400 nm, λEM = 500 nm) was measured using a microplate reader (Synergy H4; BioTek Instruments, Inc., Winooski, VT, USA) after 60 min post-incubation at room temperature. In the preliminary testing compounds were tested at 100 μM with activities determined as residual activities—RA, which were calculated to% of inhibition, presented in Table 1 and Table 2. (% of inhibition = 100% − RA). All determinations were carried out in duplicates.

hTDO = biological target: T2, hTDO (Homo sapiens, UniProt P48775); experiment: hTDO inhibitory potency evaluation (fluorescence assay); assay type: biochemical; details: for inhibition at 100 µM: 100 µM compound, n.a. = not active, read-out: TDO % of Inhibition @ 100 µM
T2 construct: purchased Vinci-Biochem
T2 sequence (P48775 whole entry): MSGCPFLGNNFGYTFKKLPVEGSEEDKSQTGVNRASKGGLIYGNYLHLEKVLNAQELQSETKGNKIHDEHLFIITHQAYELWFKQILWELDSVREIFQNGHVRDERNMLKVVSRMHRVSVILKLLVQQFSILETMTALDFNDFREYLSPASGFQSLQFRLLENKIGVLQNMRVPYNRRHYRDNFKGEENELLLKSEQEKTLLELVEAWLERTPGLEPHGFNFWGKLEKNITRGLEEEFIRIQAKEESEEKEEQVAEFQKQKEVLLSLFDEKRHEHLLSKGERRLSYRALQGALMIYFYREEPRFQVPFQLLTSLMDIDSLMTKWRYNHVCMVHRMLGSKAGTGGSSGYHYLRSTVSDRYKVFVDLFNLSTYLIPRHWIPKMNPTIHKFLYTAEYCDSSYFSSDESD
Method: as §1
The activity of the compounds on hTDO was determined according to the previously reported fluorescence protocol for hIDO1 [25] and reported absorbance protocols for hTDO [30] with several modifications. Recombinant hTDO was purchased from Vinci-Biochem (Vinci-Biochem, Vinci, Italy), bovine catalase was purchased from Sigma-Aldrich (Sigma-Aldrich, St. Louis, MO, USA). Prior to the measurement of activity for compounds, the enzyme activity was determined, and optimal assay enzyme concentration was selected. The amounts of reagents needed to perform the assay were optimized. Briefly, the reagents needed were dissolved in 50 mM potassium phosphate buffer (pH 7.0, 0.01%, v/v Tween 20), the reaction was performed in black 384-well microplates. After the addition of 1 μL of 100 mM sodium ascorbate neutralized with equimolar amount of 1 M NaOH, 1 μL of 100 μM methylene blue, 1 μL of 1 mg/mL bovine catalase, 0.5 μL of DMSO (negative control) or solution of a compound, 5 μL of 300 nM hTDO and 1.5 μL of 3.3 mM L-Trp were added and the microplate was incubated for 60 min at 37 °C. The reaction was quenched with the addition of 10 μL of 400 mM piperidine solution in MilliQ water and the formation of the examined fluorophore began following incubation at 65 °C for 20 min. The production of NFK-derived fluorophore (λEX = 400 nm, λEM = 500 nm) was measured using a microplate reader (Synergy H4; BioTek Instruments, Inc., Winooski, VT, USA) after 60 min post-incubation at room temperature. In the preliminary testing compounds were tested at 100 μM with activities determined as residual activities—RA, which were calculated to% of inhibition, presented in Table 1 and Table 2 (% of inhibition = 100% − RA). All determinations were carried out in duplicates.

| SMILES | IC50 (IDO1) [µM] | melting point [°C] | inhibition at 100 µM (IDO1) [%] | further results |
| --- | --- | --- | --- | --- |
| O=C(Cn1cnc2onc(-c3ccc(F)cc3)c2c1=O)N1CCCc2ccccc21 [Compound 12] | 50 | – | – | – |
| CN(C)C(=O)Cn1cnc2onc(-c3ccc(F)cc3)c2c1=O [Compound 13] | – | 215 to 217 | 21 ± 5 | – |
| O=C(Cn1cnc2onc(-c3ccc(F)cc3)c2c1=O)N1CCCCC1 [Compound 14] | – | 174 to 176 | 27 ± 4 | – |
| O=C(Cn1cnc2onc(-c3ccc(F)cc3)c2c1=O)NC12CC3CC(CC(C3)C1)C2 [Compound 15] | 88 | 204 to 205 | – | – |
| O=C(Cn1cnc2onc(-c3ccc(F)cc3)c2c1=O)Nc1ccccc1 [Compound 16] | – | 203 to 205 | 15 ± 4 | hIDO1 inhibition (in words) (IDO1): only weak inhibition; inhibition at 100 µM (hIDO2): 28 ± 9% |
| O=C(Cn1cnc2onc(-c3ccc(F)cc3)c2c1=O)Nc1ccc(F)cc1 [Compound 17] | – | 206 to 209 | 33 ± 2 | hIDO1 inhibition (in words) (IDO1): only weak inhibition |
| COC(=O)c1ccccc1NC(=O)Cn1cnc2onc(-c3ccc(F)cc3)c2c1=O [Compound 18] | – | 212 to 214 | 32 ± 4 | inhibition at 100 µM (hIDO2): 15 ± 1% |
| COC(=O)c1cccc(NC(=O)Cn2cnc3onc(-c4ccc(F)cc4)c3c2=O)c1 [Compound 19] | 55 | – | – | – |
| COC(=O)c1ccc(NC(=O)Cn2cnc3onc(-c4ccc(F)cc4)c3c2=O)cc1 [Compound 20] | 27 | 234 to 236 | – | hIDO1 inhibition (in words) (IDO1): low micromolar range |
| COC(=O)c1ccc(CNC(=O)Cn2cnc3onc(-c4ccc(F)cc4)c3c2=O)cc1 [Compound 21] | – | 165 to 167 | 27 ± 3 | – |
| O=C(Cn1cnc2onc(-c3ccc(F)cc3)c2c1=O)Nc1cccc(C(F)(F)F)c1 [Compound 22] | 55 | 195 to 200 | – | – |
| CS(=O)(=O)c1ccc(NC(=O)Cn2cnc3onc(-c4ccc(F)cc4)c3c2=O)cc1 [Compound 26] | – | 234 to 238 | 11 ± 2 | hIDO1 inhibition (in words) (IDO1): inactive |
| N#Cc1ccc(NC(=O)Cn2cnc3onc(-c4ccc(F)cc4)c3c2=O)cc1 [Compound 27] | – | > 250 | 11 ± 4 | hIDO1 inhibition (in words) (IDO1): inactive; inhibition at 100 µM (hTDO): 17 ± 2% |
| CN(C)c1ccc(NC(=O)Cn2cnc3onc(-c4ccc(F)cc4)c3c2=O)cc1 [Compound 28] | – | – | 31 ± 3 | hIDO1 inhibition (in words) (IDO1): weak inhibition; inhibition at 100 µM (hTDO): 18 ± 4% |
| O=C(Cn1cnc2onc(-c3ccc(F)cc3)c2c1=O)Nc1ccc(-c2ncco2)cc1 [Compound 29] | 30 | 237 to 239 | – | inhibition at 100 µM (hTDO): 29 ± 3% |
| O=C(Cn1cnc2onc(-c3ccc(F)cc3)c2c1=O)Nc1ccc(-c2nn[nH]n2)cc1 [Compound 30] | – | – | – | hIDO1 inhibition (in words) (IDO1): inactive; inhibition at 100 µM (hTDO): 17 ± 2% |
| CC(C)c1ccc(NC(=O)Cn2cnc3onc(-c4ccc(F)cc4)c3c2=O)cc1 [Compound 31] | 87 | 198 to 202 | – | – |
| O=C(Cn1cnc2onc(-c3ccc(F)cc3)c2c1=O)Nc1ccc(C2CCCCC2)cc1 [Compound 32] | 22 | – | – | hIDO1 inhibition (in words) (IDO1): low micromolar range |
| COc1cc(NC(=O)Cn2cnc3onc(-c4ccc(F)cc4)c3c2=O)cc(OC)c1OC [Compound 34] | – | 219 to 221 | – | hIDO1 inhibition (in words) (IDO1): inactive |
| O=C(Cn1cnc2onc(-c3ccc(F)cc3)c2c1=O)Nc1cccc2ccccc12 [Compound 35] | – | 210 to 215 | 20 ± 6 | – |
| O=C(Cn1cnc2onc(-c3ccc(F)cc3)c2c1=O)Nc1ccc2ccccc2c1 [Compound 36] | 46 | 180 to 184 | – | inhibition at 100 µM (hIDO2): 13 ± 2% |
| O=C(Cn1cnc2onc(-c3ccc(F)cc3)c2c1=O)N1CCc2ccccc2C1 [Compound 37] | – | 201 to 203 | 17 ± 5 | – |
| O=C(Cn1cnc2onc(-c3ccccc3)c2c1=O)N1CCCc2ccccc21 [Compound 38] | – | – | – | inhibition at 100 µM (hIDO2): 16 ± 4% |
| NS(=O)(=O)NCCNc1nonc1C(=NO)Nc1ccc(F)c(Br)c1 [epacadostat, reference compound] | – | – | – | IC50 (hIDO2; positive control, assay validation, read-out: IDO2 IC50): 0.58 µM; IC50 (hTDO): 9.62 µM |

More lines, main results first:

| IC50 (IDO1) [µM] | melting point [°C] | inhibition at 100 µM (IDO1) [%] | SMILES | further results |
| --- | --- | --- | --- | --- |
| – | 197 to 199 | – | O=C(Cn1cnc2onc(-c3ccccc3)c2c1=O)Nc1ccc([N+](=O)[O-])cc1 [Compound 40] | inhibition at 100 µM (hIDO2): 16 ± 5% |
| – | – | 32 ± 1 | O=C(Cn1cnc2onc(-c3ccc(Br)cc3)c2c1=O)N1CCCc2ccccc21 [Compound 41] | – |
| – | 171 to 178 | 15 ± 4 | COc1ccc(-c2noc3ncn(CC(=O)N4CCCc5ccccc54)c(=O)c23)cc1 [Compound 42] | – |
| – | 200 to 202 | 14 ± 3 | O=C(Cn1cnc2onc(-c3ccc(OCc4ccccc4)cc3)c2c1=O)N1CCCc2ccccc21 [Compound 46] | – |
| – | – | 34 ± 1 | O=C(Cn1cnc2onc(-c3ccc(F)c(F)c3)c2c1=O)N1CCCc2ccccc21 [Compound 47] | – |
| 75 | – | – | O=C(Cn1cnc2onc(-c3ccc(F)c(F)c3)c2c1=O)Nc1ccc([N+](=O)[O-])cc1 [Compound 48] | inhibition at 100 µM (hTDO): 10 ± 6% |
| – | 202 to 205 | – | O=C(Cn1cnc2onc(-c3cccs3)c2c1=O)N1CCCc2ccccc21 [Compound 50] | – |
| 53 | – | – | O=C(Cn1cnc2onc(-c3cccs3)c2c1=O)Nc1ccc([N+](=O)[O-])cc1 [Compound 51] | – |
| – | – | 23 ± 5 | O=C(Cn1cnc2onc(-c3ccsc3)c2c1=O)N1CCCc2ccccc21 [Compound 52] | – |
| 40 | 231 to 233 | – | O=C(Cn1cnc2onc(-c3ccsc3)c2c1=O)Nc1ccc([N+](=O)[O-])cc1 [Compound 53] | inhibition at 100 µM (hIDO2): 21 ± 6% |
